The results in this text go back to publication PMC9684503 (Communications Biology, 2022).

Values joined by “and” are separate entries in the source; they are usually repeats but may differ in a detail not shown here. Identical values can stand only once. Counter-ions that a name gives are not always drawn. Like-named read-outs stand apart in the source and are kept apart here.

One may read the IC50 as the concentration needed to halve the response being measured.

One test deals with T1, rat VMAT2-His (Rattus norvegicus, UniProt Q01827).
T1 construct: The ORF of rat VMAT2 was subcloned into a pFastBac vector; His; made in house; host or cells: Sf9 insect cells (baculovirus)
T1 sequence (Q01827 whole entry): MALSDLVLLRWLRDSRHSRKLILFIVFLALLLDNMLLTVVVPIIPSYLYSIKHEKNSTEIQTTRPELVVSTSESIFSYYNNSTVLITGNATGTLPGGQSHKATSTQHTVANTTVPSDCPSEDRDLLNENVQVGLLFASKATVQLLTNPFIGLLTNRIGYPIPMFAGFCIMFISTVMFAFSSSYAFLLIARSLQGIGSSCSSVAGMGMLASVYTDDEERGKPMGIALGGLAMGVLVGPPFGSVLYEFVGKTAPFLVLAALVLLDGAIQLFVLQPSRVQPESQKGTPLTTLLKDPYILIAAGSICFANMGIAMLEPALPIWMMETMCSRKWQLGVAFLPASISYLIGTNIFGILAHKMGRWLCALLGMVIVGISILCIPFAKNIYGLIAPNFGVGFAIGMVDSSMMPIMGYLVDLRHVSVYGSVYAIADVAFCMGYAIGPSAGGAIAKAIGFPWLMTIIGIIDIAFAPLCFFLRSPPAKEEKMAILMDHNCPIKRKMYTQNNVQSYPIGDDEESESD
The test can be described thus: Differential scanning fluorimetry (DSF) with CPM dye: change of melting temperature of purified VMAT2. Format: binding. As to conditions: for ΔTm at 12 µM: compound 0,12 µM; for ΔTm at 37 µM: compound 0,37 µM; for ΔTm at 10 µM: compound 10 µM; for ΔTm at 30 µM: compound 30 µM; for ΔTm at 90 µM: compound 90 µM; for ΔTm at 270 µM: compound 270 µM. The protocol:
To screen purified VMAT2 by DSF we expressed the rat VMAT2 protein, as VMAT2-His, in SF9 insect cells using the baculovirus expression system. The transporter was solubilized and purified in n-Dodecyl-β-D-maltoside (DDM)/cholesterol hemisuccinate (CHS) micelles by immobilized metal affinity chromatography (IMAC) and size exclusion chromatography (SEC). […] Screening was performed using DSF and the thiol-reactive dye 7-diethylamino-3-(4-maleimidophenyl)-4-methylcoumarin (CPM), an approach that monitors changes to the protein melting temperature (Tm) upon compound binding. Using CPM or other dyes, DSF-based assays have successfully been used in molecular-based screenings[34],[35]. […] DSF screening was performed in 384 well plates using the thiol-sensing dye 7-diethylamino-3-(4-maleimidophenyl)-4-methylcoumarin (CPM) (Merck). […] Protein melting curves were determined using a LightCycler 480 ii RT-PCR system (Roche), with a temperature ramp increasing from 25 to 95 °C at a rate of 2 °C/min. Data analysis was performed using an in-house software that automatically determines the protein midpoint melting temperature (Tm) based on the second derivative of the melting curves or using the HTSDSF explorer as described in ref. [58]. […] 6 μl of this mix was dispensed to each well of 384 well plates using a Multidrop™ Combi Reagent Dispenser (Thermo Scientific). […] All initial hits were then subjected to an initial validation in triplicates with a compound concentration of 200 μM and a ΔTm > 5× the standard deviation (SD) cut off. […] Processing of the data from the primary screening and the concentration-dependent validation was performed as reported.
(DSF heats the sample and reads unfolding from a dye or from intrinsic fluorescence.)

For another test, the target named is rat VMAT2 (Rattus norvegicus, UniProt Q01827). Description: FFN206 uptake assay in transfected Hek293 cells.
Sequence of rat VMAT2 (Q01827 whole entry): as above
In test [1] the target is T2, VMAT2 (Rattus norvegicus, UniProt Q01827). As to conditions: 50 µM.
T2 sequence (Q01827 whole entry): as above
Test [2] concerns the target T2, VMAT2. The test can be described thus: [3H]-DTBZ competition assay in Hek293 cells expressing VMAT2.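 Further: HEK293 cells transfected with VMAT2, pretreated 30 min with compound, then given 5 nM [3H]-DTBZ for 20 min at 37 °C, bound label read by scintillation counting.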 As to conditions: 50 μM compound.
[3] abbreviates: Table 1, DSF screening, mean ± SD of triplicates.
Where [4] appears, read: Table S2 dose response, read-out: ΔTm.
The mark [5] stands for this setting: Table S2 dose response, compound 1,11 µM, read-out: ΔTm.
The mark [6] stands for this setting: Table S2 dose response, compound 3,33 µM, read-out: ΔTm.

In the case of `CCCC(=O)Nc1ccc(OCC(O)CNC(C)C)c(C(C)=O)c1` (stereo not drawn) [Acebutolol, Acebutolol hydrochloride], the ΔTm at rat VMAT2-His (setting [3]) came to 2.14 ± 0.05 oC. Also, at rat VMAT2-His (setting [4]), the ΔTm at 12 µM was 0.2 °C, the ΔTm at 37 µM was determined as 0.03 °C, the ΔTm at 10 µM is 0.2 °C and the ΔTm at 30 µM amounted to 0.31 °C. At rat VMAT2-His (setting [4]), the ΔTm at 90 µM was found to be 0.33 °C and the ΔTm at 270 µM turned out to be 0.9 °C. Also, the ΔTm at 11 µM on rat VMAT2-His (setting [5]) was 0.3 °C. At rat VMAT2-His (setting [6]), the ΔTm at 33 µM turned out to be 0.03 °C. Further, the 50% inhibitory concentration (IC50) against rat VMAT2 is more than 10 µM. Moreover, at rat VMAT2 (read-out: IC50, rat VMAT2, Table S1, substrate uptake assays in transfected Hek293 cells), the 50% inhibitory concentration (IC50) is less than 10 µM.

For `CC(C)NCC(O)COc1ccc(CCOCC2CC2)cc1` (stereo not drawn) [Betaxolol, Betaxolol hydrochloride], on rat VMAT2-His (setting [3]), the ΔTm is 1.98 ± 0.15 oC. At rat VMAT2-His (setting [4]), the ΔTm at 12 µM is -0.32 °C, the ΔTm at 37 µM is -0.34 °C, the ΔTm at 10 µM was determined as 0.12 °C and the ΔTm at 30 µM is 0.01 °C. Moreover, on rat VMAT2-His (setting [4]), the ΔTm at 90 µM came out at 0.2 °C and the ΔTm at 270 µM came out at 1.16 °C. At rat VMAT2-His (setting [5]), the ΔTm at 11 µM came to 0.01 °C. Also, the ΔTm at 33 µM at rat VMAT2-His (setting [6]) worked out at 0.01 °C. Besides, at rat VMAT2, the IC50 stood at 6.85 ± 3.62 µM.

In the case of `OC(CCN1CCCCC1)(c1ccccc1)C1CC2C=CC1C2` (stereo not drawn) [Biperiden, Biperiden hydrochloride], the ΔTm on rat VMAT2-His (setting [3]) was 1.32 ± 0.22 oC. At rat VMAT2-His (setting [4]), the ΔTm at 12 µM was 0.2 °C, the ΔTm at 37 µM stood at 0.33 °C, the ΔTm at 10 µM was 1.11 °C and the ΔTm at 30 µM is 1.6 °C. For the same compound, on rat VMAT2-His (setting [4]), the ΔTm at 90 µM came out at 0.9 °C and the ΔTm at 270 µM amounted to 2.12 °C. At rat VMAT2-His (setting [5]), the ΔTm worked out at 0.45 °C. In addition, the ΔTm at rat VMAT2-His (setting [6]) was found to be 0.56 °C. The compound also came in with an activity at VMAT2 [1] of 79.9 ± 19.1%. At rat VMAT2 (Fig. 2a source data, 25 μM compound), the “VMAT2-specific FFN206 uptake relative to DMSO (=1), replicate samples” value was 0.4909 and 0.5029 and 0.6058 and 0.5946. Further, the inhibition at 25 µM on rat VMAT2 (HEK293, read-out: inhibitory effect on VMAT2 activity) is not above 50%. Also, on VMAT2 [2], the “effect on [3H]-DTBZ binding compared with DMSO control (one-way ANOVA, p < 0.001)” value is “no statistically significant effect”.

Regarding `CC(C)NCC(O)COc1ccc(COCCOC(C)C)cc1` (stereo not drawn) [Bisoprolol], the ΔTm at rat VMAT2-His (setting [3]) is 1.49 ± 0.05 oC. Besides, it took 3.17 ± 0.895 µM to reach half-maximal inhibition at rat VMAT2 (IC50).

Compound `CCN(CC)CCCC(C)Nc1ccnc2cc(Cl)ccc12` (stereo not drawn) [Chloroquine] gave an activity on VMAT2 [1] (hek293 cells) of 85.1 ± 11.3%. At rat VMAT2, this compound gave a half-maximal inhibitory concentration (IC50) of more than 10 µM. Besides, the “effect on [3H]-DTBZ binding compared with DMSO control (one-way ANOVA, p < 0.001)” value at VMAT2 [2] is recorded as “no statistically significant effect”.

Regarding `CC(C)(C)NCC(O)c1cc(Cl)c(N)c(Cl)c1` (stereo not drawn) [Clenbuterol], the ΔTm on rat VMAT2-His (setting [3]) is on record as 2.19 ± 0.13 oC. The 50% inhibitory concentration (IC50) at rat VMAT2 was more than 10 µM.

The compound `C=CCOc1ccccc1OCC(O)CNC(C)C` (stereo not drawn) [Oxprenolol, Oxprenolol hydrochloride] had a concentration for half-maximal inhibition (IC50) on rat VMAT2 of 6.55 ± 3.49 µM.

On to `CC(C)NCC(O)c1ccc2ccccc2c1` (stereo not drawn) [Pronethalol, Pronethalol hydrochloride], for which the ΔTm at rat VMAT2-His (10 µM) is listed as 0,71 oC; on rat VMAT2-His (11 µM), 0,70 oC; at rat VMAT2-His (12 µM), -0,02 oC; at rat VMAT2-His (30 µM), 1,83 oC; at rat VMAT2-His (33 µM), 0,48 oC; on rat VMAT2-His (37 µM), 0,21 oC. Further, the ΔTm is on record as 2,42 oC at rat VMAT2-His (90 µM) and 3,75 oC at rat VMAT2-His (270 µM). In addition, the IC50 at rat VMAT2 worked out at 1.01 ± 0.3 µM.
